Measurements taken from paper PMC5388737, “Exploring the Role of CYP3A4 Mediated Drug Metabolism in the Pharmacological Modulation of Nitric Oxide Production” (Frontiers in Pharmacology, 2017).
Values after ≈ are worked out from the molar mass of the structure shown. Like-named read-outs stand apart in the source and are kept apart here.

Tests used:
[1] = Turbidimetric kinetic aqueous solubility (NIVA-CYPI-KS); assay type: physicochemical; conditions: potassium phosphate buffer, 37 °C, pH 7.4, aqueous buffer, kinetic from dmso stock, potassium phosphate buffer pH 7.4, 2 h, turbidimetry 620 nm
Description: (§1) Serial dilutions of test compounds in 100% DMSO were carried out on a Biomek FX workstation coupled with a stacker carrousel (Beckman Coulter Inc. Brea, California). […] Compounds for NO production assessment were also prepared from serial dilutions in 100% DMSO (20 μL) which were combined with water (80 μL).
(§2) Briefly, CYP3A4 inhibition studies were conducted using human recombinant c-DNA expressed CYP3A4 enzymes by quantification of non-fluorescent substrate, 7-benzyloxy-4-(trifluoromethyl) coumarin (BFC) transformation to a fluorescent product (7-HFC), which is mediated by CYP3A4. For aqueous solubility assessment, serial dilutions of test compounds (imidazole derivatives and macrolides) dissolved in DMSO/AcN [35:65] [v/v] (2 μL) were combined with a 180 μL potassium phosphate buffer (pH 7.4) using an Evolution P3 liquid handling station. Then the plates were incubated for 2 h at 37°C to allow slow compound precipitation. Thereafter, absorbance was measured at 620 nm by an EnVision multilabel plate reader. Absorbance signals were used to determine compound solubility limits. Pyrene was used as standard control for precipitation in turbidimetric kinetic solubility determination. […] Finally, reaction product (7-HFC) formation was quantify using florescence measurements. All compounds were tested in triplicate in two different days.

[2] = In vitro metabolic stability in human liver microsomes; assay type: in vitro ADME; conditions: HLM 1 mg/mL, 1 μM substrate, NADPH, read-out: Met. stability T1/2
Description: Protein concentration was 1 mg/mL and NADPH was present at 4 mM. Reaction was quenched using an equal volume of AcN and then diluted 1:1 with water prior to analysis by liquid chromatography coupled to high resolution mass spectrometry (LC-HRMS): Chromatography. The incubations were analyzed using an Agilent Series 1290 LC system (Agilent Technologies, Santa Clara, CA, USA). […] Solvent A contained water with 0.1% formic acid and solvent B contained AcN with 0.1% formic acid, and the flow rate was set at 400 μL/min. The gradient elution was performed as follows: 0-0.5 min 0% eluent B; 0.5-7 min 100% eluent B; 7-9 min 100% eluent B; 9-9.2 min 0% eluent B; and 9.2-10.5 min 0% eluent B. High resolution mass spectrometry: AB SCIEX TripleTOF 5600 quadrupole-time-of-flight mass spectrometer (Q-TOF-MS) in positive ESI mode (AB SCIEX, Concord, ON, Canada) was used with a generic method for data acquisition on all compounds and samples. The method consisted of a time of flight mass survey scan (TOF MS), followed by two information-dependent acquisitions (IDA) TOF MS/MS scans. […] An accumulation time of 100 ms was used for each scan. Mass defect triggered IDA was used for the MS/MS scans (collision energy of 35 eV with a spread of ±10 eV). External mass calibration was performed automatically using a calibrant delivery system. Data processing was performed using MultiQuant Software and MetabolitePilot Software (AB SCIEX, Concord, ON, Canada) to process the TOF MS data and generate all quantitative information. An extracted ion current (XIC) window of ±10 mDa was used for all compounds. Peak areas were used to plot the Ln % remaining relative to t = 0.

[3] = test system: NO production in LPS stimulated RAW 264.7 macrophages; test: NO production in LPS stimulated RAW 264.7 murine macrophages (Griess assay); assay type: cell-based, mouse; conditions: for IC50: Mus musculus, RAW264.7
Description: The mouse macrophage cells, RAW264.7 (ATCC® TIB-71™) were obtained from ATCC and cultured in Dulbecco's Modified Eagle Medium (DMEM), supplemented with 10% FBS and 2 mM l-glutamine, in a humidified 5% CO2 atmosphere at 37°C. All cell handling steps were carried out using the SelecT automated cell culture system. RAW264.7 cells were seeded into 96-well plates at a density of 20 × 10^3 cells per well and grown to approximately 50% of confluence (24 h). They were cultured for another 24 h with each of the test compounds described above (5 μL of stock serial dilutions in 20% DMSO were dispensed into 190 μL of fresh medium using Perkin Elmer Evolution P3, Waltham, MA,). Afterwards, these cells were stimulated with LPS (5 μL of 6 μg/mL were dispensed using a Thermo Scientific Multidrop Combi dispenser, MTX Lab Systems, Vienna, VA). Untreated (5 μL of 20% DMSO, compound vehicle) and unstimulated (5 μL of purified water, LPS vehicle) cells were used as negative controls (n = 4) while untreated but stimulated cells were used as positive controls (n = 4) in each assay plate.
Test compound activities were calculated automatically using the Genedata Screener software (Genedata AG, Basel, Switzerland), and the percentage inhibition of each commercial compound was determined by Equation (1), integrated in the Genedata Screener software. Percentage of control of production of nitric oxide was: (1) Percentage of control = (Abswell − Absneg/Abspos − Absneg) ∗ 100 where Abswell is the absorbance measured per specific well; and Abspos and Absneg are the average absorbance measured for the positive (LPS/solvent vehicle) and negative controls (-LPS/solvent vehicle, respectively). […] Dexamethasone was used as positive control standard. All compounds were tested in triplicate (n = 3) in two different days.

CYP3A4 = CYP3A4 (Homo sapiens, UniProt P08684); test: in vitro; conditions: recombinant enzyme, pH 7.4
Description: Control samples were prepared in the absence of test compounds by the addition of solvent alone.
Briefly, the observed inactivation rate constant at each macrolide concentration was calculated from the initial slopes of the remaining enzyme activity, plotted semi-logarithmically against the pre-incubation time. Non-linear regression analysis of the negative slopes against inhibitor concentration enables Kinact and KI to be calculated. […] All compounds were tested in triplicate in two different days for every methodology studied. […].

[4] = target: human recombinant c-DNA expressed CYP3A4 (Homo sapiens, UniProt P08684); test: CYP3A4 reversible inhibition (NIVA-CYPI-KS, BFC substrate)
Description: as §1, §2

[5] = RXT metabolite profile in HLM incubations (LC-HRMS); assay type: in vitro ADME, human; conditions: RXT incubation with HLM; peak area of [M+H]+ ion
Description: Test compounds (ERY, RXT, CLT, and AZT) were incubated in HLM at an initial substrate concentration of 1 μM in a 96-well format. Standard high-throughput incubation conditions were used with time points of 0, 15, 30, 45, 60, and 90 min. Protein concentration was 1 mg/mL and NADPH was present at 4 mM. Reaction was quenched using an equal volume of AcN and then diluted 1:1 with water prior to analysis by liquid chromatography coupled to high resolution mass spectrometry (LC-HRMS): Chromatography. The incubations were analyzed using an Agilent Series 1290 LC system (Agilent Technologies, Santa Clara, CA, USA). All analyses were performed using a Supelco Discovery HS C18 (2.1 × 50 mm) 3 μm column that was held at 30°C. Solvent A contained water with 0.1% formic acid and solvent B contained AcN with 0.1% formic acid, and the flow rate was set at 400 μL/min. The gradient elution was performed as follows: 0–0.5 min 0% eluent B; 0.5–7 min 100% eluent B; 7–9 min 100% eluent B; 9–9.2 min 0% eluent B; and 9.2–10.5 min 0% eluent B. High resolution mass spectrometry: AB SCIEX TripleTOF 5600 quadrupole-time-of-flight mass spectrometer (Q-TOF-MS) in positive ESI mode (AB SCIEX, Concord, ON, Canada) was used with a generic method for data acquisition on all compounds and samples. The method consisted of a time of flight mass survey scan (TOF MS), followed by two information-dependent acquisitions (IDA) TOF MS/MS scans. The mass range was m/z 100–1,000 for both MS and MS/MS. An accumulation time of 100 ms was used for each scan. Mass defect triggered IDA was used for the MS/MS scans (collision energy of 35 eV with a spread of ±10 eV). External mass calibration was performed automatically using a calibrant delivery system. Data processing was performed using MultiQuant Software and MetabolitePilot Software (AB SCIEX, Concord, ON, Canada) to process the TOF MS data and generate all quantitative information. An extracted ion current (XIC) window of ±10 mDa was used for all compounds. […]

[6] = test system: primary cultures of alveolar rat macrophages; set-up: method as in Tamaoki et al., 1999; Kohri et al., 2000; conditions: ref Tamaoki et al., 1999, Kohri et al., 2000; cited from earlier work
[7] = read-out: Solubility Range Lower bound
[8] = read-out: Solubility Range Upper bound
[9] = LPS stimulated RAW 264.7, 24 h, concentrations with viability <80% rejected, read-out: NO production IC50
[10] = inferred from relative composition of the RXT metabolite mixture, read-out: inferred IC50 for inactivation of NO production

CYP3A4, sequence (P08684 whole entry): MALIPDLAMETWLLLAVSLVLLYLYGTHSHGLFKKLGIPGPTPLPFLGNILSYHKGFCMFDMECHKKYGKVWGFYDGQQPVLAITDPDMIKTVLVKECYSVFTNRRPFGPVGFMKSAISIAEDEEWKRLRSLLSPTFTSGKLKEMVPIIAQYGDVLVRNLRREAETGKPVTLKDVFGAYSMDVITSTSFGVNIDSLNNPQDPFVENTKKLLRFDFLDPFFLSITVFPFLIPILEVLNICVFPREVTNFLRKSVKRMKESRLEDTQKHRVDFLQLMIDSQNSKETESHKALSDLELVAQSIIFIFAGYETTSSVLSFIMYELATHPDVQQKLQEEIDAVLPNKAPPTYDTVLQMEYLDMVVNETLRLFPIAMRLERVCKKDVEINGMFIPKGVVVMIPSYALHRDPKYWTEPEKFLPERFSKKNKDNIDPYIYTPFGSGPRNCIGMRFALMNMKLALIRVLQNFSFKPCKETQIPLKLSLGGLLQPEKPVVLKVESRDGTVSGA
human recombinant c-DNA expressed CYP3A4, sequence (P08684 whole entry): as above

solubility at 2 h [1, 7]	solubility at 2 h [1, 8]	half-life at 1 μM [2]	Area (%) relative content of parent and metabolites [5]	Compound	IC50 [3, 9]	further results
2.59 µM (≈ 0.893 µg/mL)	10.3 µM (≈ 3.57 µg/mL)	–	–	Clc1ccccc1C(c1ccccc1)(c1ccccc1)n1ccnc1 [Clotrimazole, clotrimazole]	–	–
8.62 µM (≈ 3.59 µg/mL)	34.5 µM (≈ 14.3 µg/mL)	–	–	Clc1ccc(COC(Cn2ccnc2)c2ccc(Cl)cc2Cl)c(Cl)c1 (stereo not drawn) [Miconazole, miconazole]	–	–
> 86 µM	> 86 µM	38.1 min	65%	CC[C@H]1OC(=O)[C@H](C)[C@@H](O[C@H]2C[C@@](C)(OC)[C@@H](O)[C@H](C)O2)[C@H](C)[C@@H](O[C@@H]2O[C@H](C)C[C@H](N(C)C)[C@H]2O)[C@](C)(O)C[C@@H](C)/C(=N\OCOCCOC)[C@H](C)[C@@H](O)[C@]1(C)O [Roxythromycin, (E)-ERY-9-[O-[(2-methoxyethoxy)methyl]oxime]]	> 250 µM	CYP3A4 TDI KI (CYP3A4): 0.29 µM; kinact (CYP3A4): 0.000715 s⁻¹; IC50 [4]: 6.41 µM; IC50 in NO production [6]: 5 µg/mL (≈ 5.97 µM); inactivation of NO production ([3]; from 0.488 to 250 μM, LPS stimulated RAW 264.7): no inactivation at all

The remaining lines, values behind:

Compound	solubility at 2 h [1, 7]	solubility at 2 h [1, 8]	half-life at 1 μM [2]	Area (%) relative content of parent and metabolites [5]	IC50 [3, 9]	further results
CC[C@H]1OC(=O)[C@H](C)[C@@H](O[C@H]2C[C@@](C)(OC)[C@@H](O)[C@H](C)O2)[C@H](C)[C@@H](O[C@@H]2O[C@H](C)C[C@H](N(C)C)[C@H]2O)[C@](C)(O)C[C@@H](C)CN(C)[C@H](C)[C@@H](O)[C@]1(C)O [Azithromycin]	> 86 µM	> 86 µM	> 60 min	–	> 250 µM	NO production, percentage of control ([3]; 250 μM (highest noncytotoxic dose), LPS stimulated RAW 264.7): 53.82 % of control
CC[C@H]1OC(=O)[C@H](C)[C@@H](O[C@H]2C[C@@](C)(OC)[C@@H](O)[C@H](C)O2)[C@H](C)[C@@H](O[C@@H]2O[C@H](C)C[C@H](N(C)C)[C@H]2O)[C@](C)(OC)C[C@@H](C)C(=O)[C@H](C)[C@@H](O)[C@]1(C)O [Claritromycin, clarithromycin]	> 86 µM	> 86 µM	50.6 min	–	> 62.5 µM	CYP3A4 TDI KI (CYP3A4): 2.68 µM; NO production, percentage of control ([3]; 62.5 μM (highest noncytotoxic dose), LPS stimulated RAW 264.7): 85.2%
C[C@@H]1C[C@H]2[C@@H]3CCC4=CC(=O)C=C[C@]4(C)[C@@]3(F)[C@@H](O)C[C@]2(C)[C@@]1(O)C(=O)CO [Dexamethasone]	–	–	–	–	0.00721 µM	–
CC[C@H]1OC(=O)[C@H](C)[C@@H](O[C@H]2C[C@@](C)(OC)[C@@H](O)[C@H](C)O2)[C@H](C)[C@@H](O[C@@H]2O[C@H](C)C[C@H](N(C)C)[C@H]2O)[C@](C)(O)C[C@@H](C)C(=O)[C@H](C)[C@@H](O)[C@]1(C)O [Erythromycin, erythromycin]	> 86 µM	> 86 µM	21.7 min	–	> 250 µM	IC50 [4]: 3.21 µM
CC(=O)N1CCN(c2ccc(OCC3COC(Cn4ccnc4)(c4ccc(Cl)cc4Cl)O3)cc2)CC1 (stereo not drawn) [Ketoconazole, ketoconazole]	–	–	–	–	> 10 µM	–
CCC1OC(=O)C(C)C(OC2CC(C)(OC)C(O)C(C)O2)C(C)C(OC2OC(C)CC(N(C)C)C2O)C(C)(O)CC(C)C(=NO)C(C)C(O)C1(C)O (stereo not drawn) [M1, ERY oxime]	–	–	–	20%	–	IC50 [3, 10]: 23.1 µg/mL
CCC1OC(=O)C(C)C(OC2CC(C)(OC)C(O)C(C)O2)C(C)C(OC2OC(C)CC(NC)C2O)C(C)(O)CC(C)C(=NO)C(C)C(O)C1(C)O (stereo not drawn) [M5, Demethylated ERY oxime]	–	–	–	2%	–	IC50 [3, 10]: 4.74 µg/mL
